Legend:
ROCK1 = biological target: T1, ROCK1 (Homo sapiens, UniProt Q13464); assay: KINOMEscan KdELECT kinase binding assay, ROCK1; settings: equilibrium dissociation constant, 11-point 3-fold dilution series
T1 construct: purchased DiscoverX (KINOMEscan KdELECT service); host or cells: E. coli BL21-derived (T7 phage) or HEK-293
Method: (§1) The ROCK1 and ROCK2 kinase binding affinities of compounds in this invention were determined by DiscoverX's KINOMEscan™ KdELECT technology (https://www.discoverx.com/kinomescan-elect-kinase-screening-and-profiling-services): Kinase-tagged T7 phage strains were prepared in an E. coli host derived from the BL21 strain. E. coli were grown to log-phase and infected with T7 phage and incubated with shaking at 32° C. until lysis. The lysates were centrifuged and filtered to remove cell debris. The remaining kinases were produced in HEK-293 cells and subsequently tagged with DNA for qPCR detection. Streptavidin-coated magnetic beads were treated with biotinylated small molecule ligands for 30 minutes at room temperature to generate affinity resins for kinase assays. The liganded beads were blocked with excess biotin and washed with blocking buffer (SeaBlock (Pierce), 1% BSA, 0.05% Tween 20, 1 mM DTT) to remove unbound ligand and to reduce nonspecific binding. […] Test compounds were prepared as […] in 100% DMSO. Kds were determined using an […] 3-fold compound dilution series with three DMSO control points. […] The compounds were then diluted directly into the assays such that the final concentration of DMSO was 0.9%. All reactions performed in polypropylene 384-well plate. Each was a final volume of 0.02 ml. […] The kinase concentration in the eluates was measured by qPCR.

ROCK2 = biological target: T2, ROCK2 (Homo sapiens, UniProt O75116); assay: KINOMEscan KdELECT kinase binding assay, ROCK2; settings: equilibrium dissociation constant, 11-point 3-fold dilution series
T2 construct: purchased DiscoverX (KINOMEscan KdELECT service); host or cells: E. coli BL21-derived (T7 phage) or HEK-293
Method: as §1

[1] = test system: BDL model, adult male C57BLU6 mice; assay: Biliary obstruction model (bile duct ligation, BDL); assay type: in vivo; settings: 10 mg/kg PO BID; for MAP (mean arterial pressure) versus sham and BDL+vehicle: BDL C57BLU6 mice, day 9, FIG. 1
Method: Adult male C57BLU6 mice were submitted to standard bile duct ligation (BDL model: Luo, W., Meng, Y., Ji, H. L., Pan, C. Q., Huang, S., Yu, C. H., Xiao, L. M., Cui, K., Ni, S. Y., Zhang, Z. S., Li, X. Spironolactone lowers portal hypertension by inhibiting liver fibrosis, ROCK-2 activity and activating NO/PKG pathway in the bile-duct-ligated rat. PLoS One 2012, 7(3), e34230) and treated with vehicle (n=7; 50% PEG300+10% tween 80+40% saline, the formulation for Ex. 1) or Ex. 1 (n=3; 10 mg/kg, PO, BID), starting a day after BDL surgery. In this study, animals were sacrificed 9 days after BDL. A subset of BDL animals was treated with fasudil (n=2; 10 mg/kg, PO, BID) to compare hemodynamic effects (on day 9) of a ROCK2-selective inhibitor vs. a dual ROCK1/2 inhibitor in this model of liver injury/disease. A sham group served as control.
The BDL model is a model of cholestatic injury and is associated with both inflammation and biliary sclerosis. This was evident even by day 9 in the BDL+vehicle-treated cohort (p<0.01 vs. sham). […] Treatment with a compound of the invention was also associated with a reduction in biliary inflammation (H&E sections, FIG. 4A) and the necro-inflammatory score (FIG. 4B).

male CD-1 mice = assay: Mean arterial pressure after bile duct ligation in CD-1 mice; assay type: in vivo; settings: BDL CD-1 mice, 10 mg/kg orally BID for 10 days, carotid catheter under isoflurane
Method: The experiments were performed on male CD-1 mice (10-11 week-old), purchased from Charles River Laboratories, MA. After arrival, the animals were housed in the Angion Biomedica animal care facility and allowed 5 days for acclimatization in room having an ambient temperature of 23±2° C. and 12 hr dark/light cycle. The animals were fed normal rodent chow and tap water was provided ad libitum. All the animal experimental protocols were approved by the Institutional Animal Care and Use Committee at the Angion Biomedica.
For bile duct ligation (BDL), we performed midline laparotomy of a length of approximately 1.5-2 cm by cutting the cutis plus fascia with a blunt end surgical scissor. The bile duct was then exposed by caudal movement of the gut. […] Animals were allowed to recover under heating pads and were monitored closely for signs of discomfort or pain.
After 24 hrs of bile duct ligation, the CD-1 mice (N=8-10 per group,) were treated with normal saline as vehicle and the Fasudil (10 mg/kg/body weight) and Compound of Ex. 1 (10 mg/kg body weight) groups were treated orally (BID) for 10 days. […] After 10 days of treatment, animals were anesthetized and mean arterial pressure was measured.
Mice were anaesthetized using isoflurane. […] The animals were maintained on heating pads throughout the surgery and temperature was recorded by inserting a temperature probe in the rectum. […]

T1 sequence (Q13464 whole entry): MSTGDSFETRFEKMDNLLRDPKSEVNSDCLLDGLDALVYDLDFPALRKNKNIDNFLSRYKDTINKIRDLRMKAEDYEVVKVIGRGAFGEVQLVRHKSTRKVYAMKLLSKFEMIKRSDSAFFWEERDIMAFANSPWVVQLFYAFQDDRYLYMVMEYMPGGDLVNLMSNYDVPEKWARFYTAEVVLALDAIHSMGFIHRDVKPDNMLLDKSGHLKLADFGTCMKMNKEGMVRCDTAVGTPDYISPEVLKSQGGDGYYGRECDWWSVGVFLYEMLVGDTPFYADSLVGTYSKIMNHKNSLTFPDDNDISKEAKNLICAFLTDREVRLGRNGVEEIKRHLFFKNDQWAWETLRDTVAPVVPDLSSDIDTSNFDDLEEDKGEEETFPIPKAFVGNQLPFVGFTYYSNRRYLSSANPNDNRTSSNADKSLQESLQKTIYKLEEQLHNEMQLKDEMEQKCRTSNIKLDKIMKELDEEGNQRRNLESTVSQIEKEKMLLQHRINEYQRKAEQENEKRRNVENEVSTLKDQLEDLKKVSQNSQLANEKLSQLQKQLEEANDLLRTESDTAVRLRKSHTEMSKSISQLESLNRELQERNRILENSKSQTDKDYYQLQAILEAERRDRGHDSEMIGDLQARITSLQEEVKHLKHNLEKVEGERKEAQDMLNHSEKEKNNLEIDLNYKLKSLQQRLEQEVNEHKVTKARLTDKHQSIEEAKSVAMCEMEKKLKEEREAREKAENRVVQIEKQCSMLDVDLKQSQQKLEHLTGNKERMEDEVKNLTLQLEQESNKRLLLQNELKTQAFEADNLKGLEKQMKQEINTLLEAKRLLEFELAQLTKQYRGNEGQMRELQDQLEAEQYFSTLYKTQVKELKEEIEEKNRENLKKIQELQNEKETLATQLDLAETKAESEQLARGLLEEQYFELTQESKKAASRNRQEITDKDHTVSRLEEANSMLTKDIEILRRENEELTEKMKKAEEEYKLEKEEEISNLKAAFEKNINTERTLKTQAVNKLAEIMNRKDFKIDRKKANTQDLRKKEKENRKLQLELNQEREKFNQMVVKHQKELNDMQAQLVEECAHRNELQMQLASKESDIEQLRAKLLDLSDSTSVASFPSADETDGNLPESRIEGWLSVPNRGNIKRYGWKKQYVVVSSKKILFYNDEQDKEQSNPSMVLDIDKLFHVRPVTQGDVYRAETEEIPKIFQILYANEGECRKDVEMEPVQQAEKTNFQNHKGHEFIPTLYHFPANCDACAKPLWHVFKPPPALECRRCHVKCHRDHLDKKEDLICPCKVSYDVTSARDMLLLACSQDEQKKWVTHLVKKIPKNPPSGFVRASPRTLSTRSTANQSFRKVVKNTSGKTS
T2 sequence (O75116 whole entry): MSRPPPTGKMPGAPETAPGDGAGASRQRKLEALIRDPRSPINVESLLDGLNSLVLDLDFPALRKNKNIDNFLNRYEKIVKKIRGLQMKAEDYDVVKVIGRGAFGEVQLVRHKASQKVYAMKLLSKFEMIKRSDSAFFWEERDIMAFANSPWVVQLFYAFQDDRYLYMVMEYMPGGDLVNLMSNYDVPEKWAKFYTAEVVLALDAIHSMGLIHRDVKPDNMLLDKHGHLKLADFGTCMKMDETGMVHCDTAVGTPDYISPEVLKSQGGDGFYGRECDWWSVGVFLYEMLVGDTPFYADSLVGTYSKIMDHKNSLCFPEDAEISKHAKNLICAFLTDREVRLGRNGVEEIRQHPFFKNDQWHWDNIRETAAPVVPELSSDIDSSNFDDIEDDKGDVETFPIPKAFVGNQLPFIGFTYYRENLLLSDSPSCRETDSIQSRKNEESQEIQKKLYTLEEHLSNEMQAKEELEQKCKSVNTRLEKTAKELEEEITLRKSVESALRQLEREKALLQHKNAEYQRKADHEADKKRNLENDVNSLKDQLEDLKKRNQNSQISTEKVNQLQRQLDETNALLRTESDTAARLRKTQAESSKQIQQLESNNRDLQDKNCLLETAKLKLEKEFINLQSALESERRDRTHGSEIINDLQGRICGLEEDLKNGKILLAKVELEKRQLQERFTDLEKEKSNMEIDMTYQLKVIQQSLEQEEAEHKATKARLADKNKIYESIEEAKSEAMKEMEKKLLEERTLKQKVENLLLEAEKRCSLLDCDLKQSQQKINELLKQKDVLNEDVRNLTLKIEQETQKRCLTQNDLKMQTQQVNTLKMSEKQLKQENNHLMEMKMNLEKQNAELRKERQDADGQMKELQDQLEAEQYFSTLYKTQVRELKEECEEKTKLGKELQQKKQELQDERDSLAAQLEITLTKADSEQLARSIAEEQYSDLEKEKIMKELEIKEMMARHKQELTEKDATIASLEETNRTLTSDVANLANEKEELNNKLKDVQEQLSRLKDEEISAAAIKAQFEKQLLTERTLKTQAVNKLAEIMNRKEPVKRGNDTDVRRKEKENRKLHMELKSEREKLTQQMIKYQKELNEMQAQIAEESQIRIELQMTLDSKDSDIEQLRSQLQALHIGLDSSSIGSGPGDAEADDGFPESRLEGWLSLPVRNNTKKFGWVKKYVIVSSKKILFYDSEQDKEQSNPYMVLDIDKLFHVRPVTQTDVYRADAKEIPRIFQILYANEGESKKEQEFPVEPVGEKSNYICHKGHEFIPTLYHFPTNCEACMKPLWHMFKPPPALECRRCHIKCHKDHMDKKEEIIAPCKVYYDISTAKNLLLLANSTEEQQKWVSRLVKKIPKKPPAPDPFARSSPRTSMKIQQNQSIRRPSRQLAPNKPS

Row | SMILES | Kd (ROCK1) [nM] | Kd (ROCK2) [nM] | MAP (mean arterial pressure) versus sham and BDL+vehicle [1] | change (decrease) in mean arterial blood pressure (male CD-1 mice) | biliary thickening (bile duct wall thickness) ([1]; BDL mice, day 9, H&E sections and quantitative analysis, FIG. 2 and 3)
1 | N#Cc1ccc2c(c1)CN(c1nccc(-c3nccc(/C=C/c4ccncc4)n3)n1)C2 [Ex. 8, (E)-2-(4-(2-(Pyridin-4-yl)vinyl)-[2,4′-bipyrimidin]-2′-yl)isoindoline-5-carbonitrile] | 680 | 110 |  |  | 
2 | CN(C)CCOc1ccc2c(c1)CN(c1nccc(-c3nccc(/C=C/c4ccncc4)n3)n1)C2 [Ex. 9, (E)-N,N-Dimethyl-2-((2-(4-(2-(pyridin-4-yl)vinyl)-[2,4′-bipyrimidin]-2′-yl)isoindolin-5-yl)oxy)ethanamine] | 2400 | 85 |  |  | 
3 | CCNC(=O)COc1ccc2c(c1)CN(c1nccc(-c3nccc(/C=C/c4ccncc4)n3)n1)C2 [Ex. 12, (E)-N-Ethyl-2-((2-(4-(2-(pyridin-4-yl)vinyl)-[2,4′-bipyrimidin]-2′-yl)isoindolin-5-yl)oxy)acetamide] | 15000 | 180 |  |  | 
4 | COc1ccc2c(c1)CN(c1nccc(-c3nccc(/C=C/c4ccnc(N)n4)n3)n1)C2 [Ex. 5, (E)-4-(2-(2′-(5-Methoxyisoindolin-2-yl)-[2,4′-bipyrimidin]-4-yl)vinyl)pyrimidin-2-amine] | > 30000 | 2000 |  |  | 
5 | Oc1ccc2c(c1)CN(c1nccc(-c3nccc(/C=C/c4ccncc4)n3)n1)C2 [Ex. 6, (E)-2-(4-(2-(Pyridin-4-yl)vinyl)-[2,4′-bipyrimidin]-2′-yl)isoindolin-5-ol] | > 30000 | 120 |  |  | 
6 | COc1ccc2c(c1)CN(c1nccc(-c3nccc(/C=C/c4ccnc5ccccc45)n3)n1)C2 [Ex. 3, (E)-4-(2-(2′-(5-Methoxyisoindolin-2-yl)-[2,4′-bipyrimidin]-4-yl)vinyl)quinoline] | > 30000 | > 30000 |  |  | 
7 | CNC(=O)COc1ccc2c(c1)CN(c1nccc(-c3nccc(/C=C/c4ccncc4)n3)n1)C2 [Ex. 11, (E)-N-Methyl-2-((2-(4-(2-(pyridin-4-yl)vinyl)-[2,4′-bipyrimidin]-2′-yl)isoindolin-5-yl)oxy)acetamide] | 1100 | 110 |  |  | 
8 | CC(C)NC(=O)COc1ccc2c(c1)CN(c1nccc(-c3nccc(/C=C/c4ccncc4)n3)n1)C2 [Ex. 13, (E)-N-Isopropyl-2-((2-(4-(2-(pyridin-4-yl)vinyl)-[2,4′-bipyrimidin]-2′-yl)isoindolin-5-yl)oxy)acetamide] | 13000 | 130 |  |  | 
9 | Fc1ccc2c(c1)CN(c1nccc(-c3nccc(/C=C/c4ccncc4)n3)n1)C2 [Ex. 14, (E)-5-Fluoro-2-(4-(2-(pyridine-4-yl)vinyl)-[2,4′-bipyrimidin]-2′-yl)isoindoline] | 26000 | 1200 |  |  | 

Continued, in another order:

Row | Kd (ROCK1) [nM] | Kd (ROCK2) [nM] | MAP (mean arterial pressure) versus sham and BDL+vehicle [1] | SMILES | change (decrease) in mean arterial blood pressure (male CD-1 mice) | biliary thickening (bile duct wall thickness) ([1]; BDL mice, day 9, H&E sections and quantitative analysis, FIG. 2 and 3)
10 | > 30000 | 910 |  | O=S(=O)(Oc1ccc2c(c1)CN(c1nccc(-c3nccc(/C=C/c4ccncc4)n3)n1)C2)C(F)(F)F [Ex. 7, (E)-2-(4-(2-(Pyridin-4-yl)vinyl)-[2,4′-bipyrimidin]-2′-yl)isoindolin-5-yl Trifluoromethanesulfonate] |  | 
11 | 8000 | 1800 |  | COc1ccc2c(c1)CN(c1nccc(-c3nccc(/C=C/c4ccnc5[nH]ccc45)n3)n1)C2 [Ex. 4, (E)-4-(2-(2′-(5-Methoxyisoindolin-2-yl)-[2,4′-bipyrimidin]-4-yl)vinyl)-1H-pyrrolo[2,3-b]pyridine] |  | 
12 |  |  | decreased MAP | O=S(=O)(c1cccc2cnccc12)N1CCCNCC1 [fasudil, reference compound] | ~26 mm Hg | 
13 | > 30000 | 140 | not different | COc1ccc2c(c1)CN(c1nccc(-c3nccc(/C=C/c4ccncc4)n3)n1)C2 [Ex. 1, (E)-5-Methoxy-2-(4-(2-(pyridine-4-yl)vinyl)-[2,4′-bipyrimidin]-2′-yl)isoindoline] | did not cause any change | reduction in biliary thickening

From US11542256B2, “Vinylheterocycles as Rho-associated coiled-coil kinase (ROCK) inhibitors” (ANGION BIOMEDICA CORP., priority 2017, dated 2023)
